Assay results published in ChEMBL document CHEMBL1201862, “PubChem BioAssay data set” (2004).
Calls of active or inactive are those of the source.

How the values were obtained:
[1] = inhibitors of firefly luciferase expression or activity, dose response, H4 neuroglioma cells, luminescence (AID 1990); type: functional, cell-based
[2] = Luminescence Cell-Based Dose Response HTS to Identify Inhibitors of 5'UTR Stem-Loop Driven Prion Protein mRNA Translation in H4 Neuroglioblastoma Cells. [Related pubchem assays: 1827 (Project Summary), 1813 (Primary HTS)]; type: functional
[3] = inhibitors of SNCA 5'UTR-driven reporter translation, confirmation, H4 neuroglioma cells, luminescence (AID 1988); type: functional, cell-based
[4] = molecular target: T1, Apoptotic protease-activating factor 1 (Homo sapiens, UniProt O14727); type: functional
T1 sequence (O14727 whole entry): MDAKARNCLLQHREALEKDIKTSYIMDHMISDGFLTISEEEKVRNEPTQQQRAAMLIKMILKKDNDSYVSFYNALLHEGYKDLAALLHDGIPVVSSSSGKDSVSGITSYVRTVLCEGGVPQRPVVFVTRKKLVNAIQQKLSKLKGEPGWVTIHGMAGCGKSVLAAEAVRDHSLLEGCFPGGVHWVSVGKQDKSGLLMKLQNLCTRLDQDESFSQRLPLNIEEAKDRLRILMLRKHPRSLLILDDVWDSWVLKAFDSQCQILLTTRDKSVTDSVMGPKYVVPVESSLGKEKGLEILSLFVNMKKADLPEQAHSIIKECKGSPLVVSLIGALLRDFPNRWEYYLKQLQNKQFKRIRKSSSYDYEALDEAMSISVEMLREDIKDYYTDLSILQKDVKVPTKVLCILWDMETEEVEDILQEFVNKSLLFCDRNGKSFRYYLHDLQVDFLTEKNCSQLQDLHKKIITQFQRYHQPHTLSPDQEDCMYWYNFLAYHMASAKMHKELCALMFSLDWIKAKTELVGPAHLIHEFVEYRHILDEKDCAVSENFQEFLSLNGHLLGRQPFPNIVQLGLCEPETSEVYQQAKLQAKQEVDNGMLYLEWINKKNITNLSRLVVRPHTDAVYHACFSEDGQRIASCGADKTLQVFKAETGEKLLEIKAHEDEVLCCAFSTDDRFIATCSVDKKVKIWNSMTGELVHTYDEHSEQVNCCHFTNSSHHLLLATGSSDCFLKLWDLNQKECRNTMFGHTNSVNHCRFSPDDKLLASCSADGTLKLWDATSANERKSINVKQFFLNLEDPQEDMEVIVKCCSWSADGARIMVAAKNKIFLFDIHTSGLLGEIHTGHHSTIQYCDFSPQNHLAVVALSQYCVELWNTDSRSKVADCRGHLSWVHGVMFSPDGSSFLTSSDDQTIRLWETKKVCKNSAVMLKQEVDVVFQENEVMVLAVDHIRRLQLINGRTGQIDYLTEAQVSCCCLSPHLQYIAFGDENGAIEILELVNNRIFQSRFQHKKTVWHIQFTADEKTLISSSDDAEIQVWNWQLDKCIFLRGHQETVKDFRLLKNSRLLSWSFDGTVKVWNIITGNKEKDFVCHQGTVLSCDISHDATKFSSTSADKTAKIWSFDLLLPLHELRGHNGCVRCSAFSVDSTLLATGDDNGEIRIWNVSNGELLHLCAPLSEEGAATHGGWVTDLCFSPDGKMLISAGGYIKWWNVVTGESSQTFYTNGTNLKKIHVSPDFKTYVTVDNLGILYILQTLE

Beta-lactamase [5] = molecular target: Beta-lactamase (Pseudomonas aeruginosa, UniProt Q79MP6);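 further: biochemical dose-response test of metallo-beta-lactamase enzyme inhibition, read out by epi-absorbance; purified recombinant IMP-1 metallo-beta-lactamase with nitrocefin as substrate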
Beta-lactamase [6] = molecular target: Beta-lactamase (Salmonella choleraesuis (strain SC-B67), UniProt Q5J463)
CHO = test: cytotoxicity in TLR9-MyD88 CHO cells, dose response, cytotoxicity control for TLR9-MyD88 binding inhibitor project, cell-based, luminescence (AID 588339); type: functional, hamster; conditions: Cricetulus griseus;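 further: CHO cells stably coexpressing TLR9 and MyD88 fusions from primary screen; compound exposure lasted 48 hours before viability readout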
Insulin-degrading enzyme [7] = molecular target: T2, Insulin-degrading enzyme (Homo sapiens, UniProt P14735); test: activators of recombinant IDE enzyme, dose response, counter-screen for IDE activator project, biochemical, fluorescence polarization (AID 588681)
T2 sequence (P14735 whole entry): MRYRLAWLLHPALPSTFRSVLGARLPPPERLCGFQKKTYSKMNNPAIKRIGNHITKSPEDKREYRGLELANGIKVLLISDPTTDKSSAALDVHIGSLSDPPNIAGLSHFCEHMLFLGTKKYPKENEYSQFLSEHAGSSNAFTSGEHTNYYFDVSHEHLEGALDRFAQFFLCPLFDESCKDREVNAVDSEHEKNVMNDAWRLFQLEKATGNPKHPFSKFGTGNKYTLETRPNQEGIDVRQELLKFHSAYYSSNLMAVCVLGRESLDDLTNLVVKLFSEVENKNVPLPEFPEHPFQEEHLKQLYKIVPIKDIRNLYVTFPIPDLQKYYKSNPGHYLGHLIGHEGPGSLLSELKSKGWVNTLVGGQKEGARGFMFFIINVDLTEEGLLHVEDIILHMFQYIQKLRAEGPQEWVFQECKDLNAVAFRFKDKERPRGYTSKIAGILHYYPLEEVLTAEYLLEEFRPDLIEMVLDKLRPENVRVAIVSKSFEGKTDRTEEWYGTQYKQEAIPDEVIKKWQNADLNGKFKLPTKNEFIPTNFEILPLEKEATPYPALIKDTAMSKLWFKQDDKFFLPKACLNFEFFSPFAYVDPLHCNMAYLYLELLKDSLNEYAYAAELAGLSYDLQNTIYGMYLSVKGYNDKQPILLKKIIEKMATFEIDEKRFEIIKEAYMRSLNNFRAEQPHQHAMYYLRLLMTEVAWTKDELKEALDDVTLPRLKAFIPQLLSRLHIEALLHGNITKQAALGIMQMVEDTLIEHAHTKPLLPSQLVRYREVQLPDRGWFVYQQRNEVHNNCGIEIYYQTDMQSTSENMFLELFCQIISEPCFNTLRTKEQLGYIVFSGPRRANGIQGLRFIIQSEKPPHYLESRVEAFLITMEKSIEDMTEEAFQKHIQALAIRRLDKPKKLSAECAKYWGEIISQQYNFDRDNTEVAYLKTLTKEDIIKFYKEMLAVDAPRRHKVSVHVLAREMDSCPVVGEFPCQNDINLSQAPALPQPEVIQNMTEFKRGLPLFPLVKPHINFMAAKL

Insulin-degrading enzyme [8] = molecular target: T2, Insulin-degrading enzyme; test: activators of endogenous IDE in HEK cells, dose response, cell-based, fluorescence polarization (AID 588439); type: functional
HEK293 [9] = test: HEK cell cytotoxicity by LDH release, dose response, cytotoxicity control for IDE activator project, fluorescence, HEK cells (AID 588440); type: functional, cell-based; conditions: Homo sapiens;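 further: cytotoxicity by LDH release measuring loss of membrane integrity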
HEK293 [10] = test: optical interference in Abeta FP readout, dose response, artefact control for IDE activator project, biochemical, fluorescence polarization (AID 588442); type: functional, cell-based; conditions: Homo sapiens

Chain of Beta-lactamase (Pseudomonas aeruginosa, UniProt Q79MP6) (Q79MP6 whole entry): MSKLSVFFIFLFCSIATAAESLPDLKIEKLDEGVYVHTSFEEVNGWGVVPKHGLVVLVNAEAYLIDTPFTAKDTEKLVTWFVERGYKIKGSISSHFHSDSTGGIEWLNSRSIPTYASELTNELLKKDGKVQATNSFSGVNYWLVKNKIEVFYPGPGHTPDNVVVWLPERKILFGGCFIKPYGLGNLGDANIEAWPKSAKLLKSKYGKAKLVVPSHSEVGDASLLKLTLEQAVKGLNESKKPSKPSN
Chain of Beta-lactamase (Salmonella choleraesuis (strain SC-B67), UniProt Q5J463) (Q5J463 whole entry, the tested form may be a part): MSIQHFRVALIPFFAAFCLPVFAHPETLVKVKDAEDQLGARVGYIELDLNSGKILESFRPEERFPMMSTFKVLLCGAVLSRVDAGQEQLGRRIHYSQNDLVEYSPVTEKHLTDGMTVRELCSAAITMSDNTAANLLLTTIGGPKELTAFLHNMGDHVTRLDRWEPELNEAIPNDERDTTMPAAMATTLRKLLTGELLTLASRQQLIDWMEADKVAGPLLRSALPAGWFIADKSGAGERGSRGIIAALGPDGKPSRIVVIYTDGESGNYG

Row | Structure (SMILES) | EC50 [1] | EC50 [2] | EC50 [3] | IC50 [4] | IC50 (Beta-lactamase [5]) | IC50 (Beta-lactamase [6]) | IC50 (CHO) | EC50 (Insulin-degrading enzyme [7]) | EC50 (Insulin-degrading enzyme [8]) | IC50 (HEK293 [9]) | EC50 (HEK293 [10])
1 | Cc1c(CCC(C)C)c(O)n2c(nc3ccccc32)c1C#N | 69.3 µM (active) | > 120 µM (not active) | > 120 µM (not active) | 38.6 µM (active) |  |  |  |  |  |  | 
2 | CCCCNc1ccc2c3c(cccc13)C(=O)N(CCCC)C2=O |  |  |  |  | 37.2 µM (inactive) | 3.89 µM (active) | > 49.7 µM (inactive) | > 54.7 µM (inactive) | > 54.7 µM (inactive) | > 89.1 µM (inactive) | 12.1 µM (inactive)
